The values that follow come from patent US10813886B2, “Methods and systems for improved bioavailability of active pharmaceutical ingredients including esomeprazole” (priority 2013, dated 2020).

≈ marks a conversion by molar mass, not a printed value.

The conditions of series [1]: cited from earlier work.
The conditions of series [2]: as the magnesium trihydrate, cited from earlier work.
For series [3] the following is noted: human, in vivo. The source says: Patients were selected from volunteers aged 18 to 65 years, inclusive, with a Body Mass Index (BMI) between […] inclusive and free from any significant diseases including cardiac, renal and gastrointestinal disease. […] The crossover design eliminated potential treatment effects on the outcome, as well as effectively allowing the subject to serve as their own control. Each dosing occasion was separated by a 7-14 day washout period. Fasting conditions represented an overnight fast of at least 10 hours and fed state was after a high calorie, high fat breakfast 30 minutes prior to dosing.
The % EMT was quantified from human plasma according to methods based on the FDA Bioanalytical Method Validation Guide for Industry and the EMA Guideline on bioanalytical method validation (York Bioanalytical Solutions). Briefly, plasma samples were submitted to supported liquid extraction and liquid chromatography with tandem mass spectrometric detection (lower limit of quantification 5.00 ng/ml with a sample aliquot volume of 100 microliters). The analytes detected were esomeprazole, 5-hydroxyomeprazole, and omeprazole sulphone and were validated against commercial samples and calibration standards. […] Calibration samples were obtained commercially as follows: esomeprazole (Sigma-Aldrich), 5-hydroxyomeprazole, and omeprazole sulphone (Toronto Chemicals Inc.). Internal standards omeprazole d3, 5-hydroxyomeprazole d3 and omeprazole sulphone-d3 were also utilized (Toronto Chemicals Inc.). Plasma samples were stored at −20° C. Data was collected using Analyst software (Applied Biosystems-Sciex) in combination with Watson LIMS (Thermo Fisher Scientific); peak area ratios were used to generate calibration curves using regression functions.

Turning to `COc1ccc2nc([S@@+]([O-])Cc3ncc(C)c(OC)c3C)[nH]c2c1` [Esomeprazole], the “stability in acid conditions” value in series [1] (acid conditions) is “degrades”. Further, the “stability at pH 6.8” value in series [1] (pH 6.8) is on record as “stable”. Also, in series [2], the solubility in heptane result is on record as “insoluble”. Besides, in series [2] (in water at 25° C.), the solubility in water is 1500 µg/mL (≈ 4.34 mM). In addition, in series [3], the “Intra-subject Coefficient of Variation of AUCinf” value came out at 40.85 CV %, the “Intra-subject Coefficient of Variation of AUCt” value was determined as 83.08 CV % and the “Intra-subject Coefficient of Variation of Cmax” value came out at 97.51 CV %.
